Where a name gives a salt, the structure may show the parent alone.
Target: T1, sc-urokinase (Homo sapiens, UniProt P00749)
T1 construct: purchased Ribosepharm GmbH, Haan, Germany
Experiment: Determination of the urokinase-inhibiting activity (chromogenic substrate, Dixon)
Assay type: biochemical
Conditions: Pefachrome UK or Bz-βAla-Gly-Arg-pNA, 25° C., pH 8.0, mean from at least 3 determinations
Procedure: Determination of the Urokinase-inhibiting Activity
To determine the inhibitory activity, 200 μl of Tris buffer (0.05 mol/l, containing the inhibitor, 0.154 mol/l of NaCl, 5% ethanol, pH 8.0), 25 μl of substrate (Pefachrome UK or Bz-βAla-Gly-Arg-pNA in H2O; Pentapharm Ltd., Basel, Switzerland) and 50 μl of sc-urokinase (Ribosepharm GmbH, Haan, Germany) were incubated at 25° C. After 3 min the reaction was stopped by the addition of 25 μl of acetic acid (50%) and the absorption was determined at 405 nm by means of a microplate reader (MR 50001 Dynatech, Denkendorf, Germany). The Ki values were determined according to Dixon by linear regression using a computer program. The Ki values represent the mean from at least 3 determinations.
The Ki values mentioned in Table 2 can be determined according to the above mentioned method.

Ki [µM]	SMILES
25.6 ± 9.5	CCOC(=O)N1CCN(C(=O)N(Cc2cccc(C(N)=NN)c2)NS(=O)(=O)c2c(C(C)C)cc(C(C)C)cc2C(C)C)CC1 [Example 18]
0.67 ± 0.18	CCOC(=O)N1CCN(C(=O)N(Cc2cccc(C(=N)N)c2)NS(=O)(=O)c2c(C(C)C)cc(C(C)C)cc2C(C)C)CC1 [Example 5, 1-Ethoxycarbonyl-4-[1-(3-(amino-imino-methyl)-benzyl)-2-(2,4,6-triisopropyl-benzenesulfonyl)-1-hydrazino-carbonyl]-piperazine hydrochloride]

From patent publication US6861435B2, “Urokinase inhibitors” (Pentapharm AG, priority 2001, dated 2005)
